Consider nine molecules from US20130079271A1, “REVERSED BIARYL SPIROAMINOOXAZOLINE ANALOGUES AS ALPHA2C ADRENERGIC RECEPTOR MODULATORS” (priority 2009, published 2013).

Structures are written as SMILES.

In the experiment the target is T1, α2C receptor (Homo sapiens, UniProt P18825).
T1 sequence (P18825 1-462): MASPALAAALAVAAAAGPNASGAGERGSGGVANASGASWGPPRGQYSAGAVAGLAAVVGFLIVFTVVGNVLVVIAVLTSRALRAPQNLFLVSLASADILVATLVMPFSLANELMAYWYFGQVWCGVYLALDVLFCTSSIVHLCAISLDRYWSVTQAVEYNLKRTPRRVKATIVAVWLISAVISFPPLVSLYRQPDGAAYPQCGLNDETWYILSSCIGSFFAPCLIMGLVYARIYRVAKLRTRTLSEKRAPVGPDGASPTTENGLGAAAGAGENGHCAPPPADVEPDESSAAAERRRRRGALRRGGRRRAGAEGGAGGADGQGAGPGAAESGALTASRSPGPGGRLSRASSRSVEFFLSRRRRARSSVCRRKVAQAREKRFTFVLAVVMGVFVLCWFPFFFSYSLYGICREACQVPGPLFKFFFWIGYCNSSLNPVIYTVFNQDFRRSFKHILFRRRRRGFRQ
As to the kind of experiment: Efficacy agonist activity (Emax, GTPγS assay) at α2C. The class given is biochemical. The conditions noted are these: by definition: efficacy at α2C ≧30% Emax (GTPγS assay); functionally selective if also efficacy at α2A ≦35% Emax. The method, then:
Efficacy agonist activity values (Emax, GTPγS assay) for α2A and α2C were determined by following the general procedure detailed by Umland et. al (“Receptor reserve analysis of the human α2c-adrenoceptor using [^35S]GTPγS and cAMP functional assays” European Journal of Pharmacology 2001, 411, 211-221). For the purposes of the present invention, a compound is defined to be a specific or at least functionally selective agonist of the α2C receptor subtype if the compound's efficacy at the α2C receptor is ≧30% Emax (GTPγS assay) and its efficacy at the α2A receptor is ≦35% Emax (GTPγS assay). Additionally, for the purposes of this invention, a compound is defined to be an antagonist of the α2C receptor subtype if the compound's efficacy at the α2C receptor is <30% Emax (GTPγS assay) and the Ki at the α2C receptor subtype was <500 nM, preferentially <200 nM, and most preferentially <20 nM.
For `NC1=NCC2(CCc3c(cccc3-c3cncnc3)C2)O1` (racemic) [(±)-1], the “evaluated to be active or functionally selective agonists of the α2C receptor subtype” value was “active or functionally selective agonists”.
Then `CN1OC2(CCc3cccc(-c4cncnc4)c3C2)N=C1N` (racemic) [(±)-5B], with “active or functionally selective agonists”.
For the molecule `CN1OC2(CCc3ccc(-c4cncnc4)cc3C2)N=C1N` (racemic) [(±)-5F], the “evaluated to be active or functionally selective agonists of the α2C receptor subtype” value is “active or functionally selective agonists”.
Take `CN1OC2(CCc3c(cccc3-c3cncnc3)C2)N=C1N` (racemic) [(±)-5]: the “evaluated to be active or functionally selective agonists of the α2C receptor subtype” value was “active or functionally selective agonists”.
Then `NC1=NCC2(CCc3c(cccc3-c3cc(F)cc(F)c3)C2)O1` (racemic) [(±)-104], with “active or functionally selective agonists”.
Then `NC1=NCC2(CCc3c(cccc3-c3cncc(F)c3)C2)O1` (racemic) [(±)-108], with “active or functionally selective agonists”; and `NC1=NC[C@]2(CCc3c(cccc3-c3cncc(F)c3)C2)O1` (racemic) [compound 113], with “active or functionally selective agonists”; and `NC1=NC[C@]2(CCc3c(cccc3-c3cncnc3)C2)O1` [1f], with “active or functionally selective agonists”.
Consider `NC1=NC[C@]2(CCc3c(cccc3-c3cc(F)cc(F)c3)C2)O1` [compound 112], for which the “evaluated to be active or functionally selective agonists of the α2C receptor subtype” value is “active or functionally selective agonists”.
